From ChEMBL document CHEMBL1629606, “In vitro and in vivo properties of ellagic acid in malaria treatment” (Antimicrob Agents Chemother, 2009) come the findings set out here.

pIC50: −log10 of the molar value. Calls of active or inactive are those of the source. The rule behind the calls is not given here.

Data set [1] relates to Plasmodium falciparum. The data set is described as follows: Antiplasmodial activity against Plasmodium falciparum F32. It counts as functional, organism-based.
Data set [2] concerns Plasmodium falciparum. The data set is described as follows: Antiplasmodial activity against Plasmodium falciparum Dd2. The class given is functional, organism-based.
The subject of data set [3] is Plasmodium falciparum. The data set is described as follows: Antiplasmodial activity against Plasmodium falciparum W2. The class given is functional, organism-based.
In data set [4] the test system is Plasmodium falciparum. The data set is described as follows: Antiplasmodial activity against Plasmodium falciparum FcM29. It counts as functional, organism-based.
Data set [5] relates to Plasmodium falciparum. The data set is described as follows: Antiplasmodial activity against Plasmodium falciparum FcB1. It counts as functional, organism-based. To be noted: FcB1/Columbia.
Data set [6] concerns Vero. In words: Cytotoxicity against Vero cells at 100 uM by MTS assay. The class given is cell-based. To be noted: chlorocebus sabaeus. (In general: Tetrazolium assays rely on reduction of a dye to a coloured formazan, in cell work by metabolically active cells.)
Data set [7] relates to MRC5. The data set is described as follows: Cytotoxicity against human MRC5 cells at 100 uM by MTS assay. It counts as cell-based. To be noted: mrc5, 100 µM.
The test system of data set [8] is KB. The data set is described as follows: Cytotoxicity against human KB cells at 100 uM by MTS assay. The class given is cell-based.
The subject of data set [9] is Plasmodium falciparum. In words: Antiplasmodial activity against chloroquine-resistant Plasmodium falciparum W2 in presence of chloroquine. It counts as functional.
The test system of data set [10] is Plasmodium vinckei petteri. In words: Antiplasmodial activity against Plasmodium vinckei petteri infected in Swiss mouse assessed as inhibition of parasite growth at 50 mg/kg/day, ip measured on day 4 postinfection. The class given is functional. The following applies: 96 h, route intraperitoneal.
Data set [11] has as its system Plasmodium vinckei petteri. In words: Antiplasmodial activity against Plasmodium vinckei petteri infected in Swiss mouse assessed as inhibition of parasite growth at 100 mg/kg/day, ip measured on day 5 postinfection. The following applies: 120 h, route intraperitoneal. The class given is functional.
Data set [12] relates to Plasmodium vinckei petteri. The data set is described as follows: Antiplasmodial activity against Plasmodium vinckei petteri infected in Swiss mouse assessed as inhibition of parasite growth at 1 mg/kg/day, po measured on day 4 postinfection. It counts as functional, organism-based.
The subject of data set [13] is Plasmodium vinckei petteri. In words: Antiplasmodial activity against Plasmodium vinckei petteri infected in Swiss mouse assessed as inhibition of parasite growth at 50 mg/kg/day, po measured on day 4 postinfection. It counts as functional, organism-based.
In data set [14] the test system is Plasmodium vinckei petteri. In words: Antiplasmodial activity against Plasmodium vinckei petteri infected in Swiss mouse assessed as inhibition of parasite growth at 100 mg/kg/day, po measured on day 5 postinfection. It counts as functional, organism-based.
For data set [15], the system named is Plasmodium vinckei petteri. The data set is described as follows: Antiplasmodial activity against Plasmodium vinckei petteri infected in Swiss mouse assessed as recrudescence of malaria at 50 mg/kg/day, ip measured upto day 60 postinfection. It counts as functional, organism-based.
Data set [16] concerns Plasmodium vinckei petteri. In words: Antiplasmodial activity against Plasmodium vinckei petteri infected in Swiss mouse assessed as recrudescence of malaria at 100 mg/kg/day, ip measured upto day 60 postinfection. It counts as functional, organism-based.
The subject of data set [17] is Plasmodium vinckei petteri. In words: Antiplasmodial activity against Plasmodium vinckei petteri infected in Swiss mouse assessed as recrudescence of malaria at 5 mg/kg/day, ip measured upto day 60 postinfection. The class given is functional, organism-based.
The test system of data set [18] is Plasmodium vinckei petteri. In words: Antiplasmodial activity against Plasmodium vinckei petteri infected in Swiss mouse assessed as survival at 10 mg/kg, ip treated 4 days before infection measured on day 6 postinfection. The class given is functional, organism-based. The arrangement: dose 10 mg/kg.
Data set [19] concerns Plasmodium vinckei petteri. In words: Antiplasmodial activity against Plasmodium vinckei petteri infected in Swiss mouse assessed as mortality at 100 mg/kg, po treated 4 days after infection measured on day 7 postinfection. It counts as functional, organism-based. The arrangement: dose 100 mg/kg.
For data set [20], the system named is Plasmodium vinckei petteri. The data set is described as follows: Antiplasmodial activity against Plasmodium vinckei petteri infected in Swiss mouse assessed as survival at 10 mg/kg, ip treated 4 days before infection measured on day 9 postinfection. Set-up: dose 10 mg/kg. It counts as functional, organism-based.
The test system of data set [21] is Mus musculus. In words: Toxicity in Swiss mouse at 100 mg/kg/day, po for 4 days measured upto day 30. The class given is organism-based. Set-up: route oral. The following applies: in vivo, 96 h.
The subject of data set [22] is Mus musculus. The data set is described as follows: Toxicity in Swiss mouse at 250 mg/kg/day, po for 4 days measured upto day 30. The class given is organism-based. Set-up: route oral. The following applies: in vivo, 96 h.
Data set [23] relates to Mus musculus. The data set is described as follows: Toxicity in Swiss mouse at 500 mg/kg/day, po for 4 days measured upto day 30. It counts as organism-based. Set-up: route oral. To be noted: in vivo, 96 h.
For data set [24], the system named is Mus musculus. The data set is described as follows: Toxicity in Swiss mouse at 1000 mg/kg/day, po for 4 days measured upto day 30. It counts as organism-based. Set-up: route oral. To be noted: in vivo, 96 h.
Data set [25] concerns Mus musculus. The data set is described as follows: Toxicity in Swiss mouse at 100 mg/kg/day, ip for 4 days measured upto day 30. The class given is organism-based. Set-up: route intraperitoneal. To be noted: in vivo, 96 h.
Data set [26] concerns Mus musculus. In words: Toxicity in Swiss mouse at 250 mg/kg/day, ip for 4 days measured upto day 30. The class given is organism-based. The arrangement: route intraperitoneal. The following applies: in vivo, 96 h.
Data set [27] deals with Mus musculus. The data set is described as follows: Toxicity in Swiss mouse at 500 mg/kg/day, ip for 4 days measured upto day 30. It counts as organism-based. The arrangement: route intraperitoneal. To be noted: in vivo, 96 h.
For data set [28], the system named is Mus musculus. In words: Toxicity in Swiss mouse at 1000 mg/kg/day, ip for 4 days measured upto day 30. The class given is organism-based. Set-up: route intraperitoneal. The following applies: in vivo, 96 h.
In data set [29] the test system is Plasmodium falciparum. The data set is described as follows: Antiplasmodial activity against Plasmodium falciparum FcM29 assessed as inhibition of parasite growth at 180 nM in presence of 0.87 uM N-acetyl-L-cysteine. It counts as functional, organism-based.
The test system of data set [30] is Monocyte. In words: Antioxidant activity in human Monocyte assessed as reduced in PMA-induced ROS production at 3.3 uM by chemiluminescence assay. The class given is functional, cell-based.
The test system of data set [31] is Plasmodium falciparum. The data set is described as follows: Antiplasmodial activity against […] Plasmodium falciparum Dd2 assessed as 50% revertant concentration required for mefloquine resistant. It counts as functional.
In data set [32] the test system is Plasmodium falciparum. In words: Antiplasmodial activity against chloroquine-resistant Plasmodium falciparum W2 in presence of mefloquine. It counts as functional.
For data set [33], the system named is Plasmodium falciparum. In words: Antiplasmodial activity against chloroquine-resistant Plasmodium falciparum W2 in presence of artemisinin. It counts as functional.
In data set [34] the test system is Plasmodium falciparum. The data set is described as follows: Antiplasmodial activity against chloroquine-resistant Plasmodium falciparum W2 in presence of artesunate. It counts as functional.
Data set [35] has as its system Plasmodium falciparum. The data set is described as follows: Antiplasmodial activity against chloroquine-resistant Plasmodium falciparum W2 in presence of atovaquone. It counts as functional.
Data set [36] has as its system Plasmodium falciparum. The data set is described as follows: Antiplasmodial activity against chloroquine-resistant Plasmodium falciparum W2 assessed as 50% revertant concentration required for chloroquine susceptibility. It counts as functional.

One may read the pIC50 as the negative decadic logarithm of the IC50, by convention in mol/L. Regarding `C[C@@H]1CC[C@H]2[C@@H](C)C(=O)O[C@@H]3O[C@@]4(C)CC[C@@H]1[C@]32OO4` [ARTEMISININ], the negative logarithm of the IC50 (pIC50) in data set [1] is 7.90; in data set [2] it was 7.87; in data set [3] it was 7.88; in [4] it was 7.91.
For orientation: inhibition in vivo means the drop in the measured response relative to a control, in per cent. Turning to `O=c1oc2c(O)c(O)cc3c(=O)oc4c(O)c(O)cc1c4c23` [ELLAGIC ACID], the negative-log IC50 (pIC50) in data set [1] was 6.48; in [2], 6.98; in data set [5], 6.52; in data set [3], 6.48; in data set [4] it was 6.74. The Activity result in [6], in [7], in data set [8], in data set [21], in data set [22] and in data set [23] was “Non-toxic” each time. For the same compound, the Activity entry in [24] is “Non-toxic”; in [25] it was “Non-toxic”; in data set [26], “Non-toxic”; in data set [27], “Non-toxic”; in data set [28], “Non-toxic”; in data set [31], 5 ng/mL. Also, the FIC50 in data set [9] is on record as 0.63; in data set [32], 0.64; in [33] it was 1.26; in [34] it was 0.57; in data set [35], 0.53. Further, the inhibition in vivo at 50 mg/kg/day in data set [10] was 100%. Besides, the inhibition in vivo at 100 mg/kg/day in data set [11] came out at 100%. Further, the result in data set [12], in [13], in data set [14], in data set [15], in [16] and in [17] was Active. In addition, the result in data set [18], in data set [20] and in data set [30] was Active. The outcome in data set [19] and in data set [29] was inactive.
`OC1(c2ccc(Cl)c(C(F)(F)F)c2)CCN(CCCC(c2ccc(F)cc2)c2ccc(F)cc2)CC1` [PENFLURIDOL]: the Activity in data set [31] came to 96 ng/mL.
Turning to `COc1ccc(CCN(C)CCCC(C#N)(c2ccc(OC)c(OC)c2)C(C)C)cc1OC` (stereo unspecified) [VERAPAMIL], in data set [36], the Activity was found to be 0.31 µM.
